We go through 11 molecules from PubChem BioAssay (NCI).

Among the test systems are HOP-18 NSCLC; M19-MEL melanoma; RXF-631 renal; XF 498 CNS; P388 leukemia; P388/ADR leukemia; SN12K1 renal; LXFL 529 NSCLC.
Assay in all cases: NCI tumour cell line growth inhibition, 48 h

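Cultured in 96-well plates, cells were exposed to test compound for 48 hours across five concentrations. TGI: concentration producing complete growth inhibition.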 Some results are limits rather than exact numbers.

In the case of `COc1c(Br)cc(CC(N)=O)c(O)c1Br`, the TGI in the test on HOP-18 NSCLC, in the test on M19-MEL melanoma, with RXF-631 renal and in the test with XF 498 CNS was above 100 µM throughout.

For `O=C(CC1=NCCN1)c1ccccc1`, the TGI in the test with HOP-18 NSCLC, in the test on M19-MEL melanoma, with P388 leukemia, in the test on P388/ADR leukemia, in the test with SN12K1 renal and with XF 498 CNS was above 750 µM each time.

As for `NC(N)=Nc1ncccc1[N+](=O)[O-]`, the TGI with HOP-18 NSCLC, in the test with P388 leukemia, in the test on P388/ADR leukemia, with SN12K1 renal and in the test with XF 498 CNS was above 100 µM throughout.

Turning to `COC1(OC)CCCCC2c3cccc(OC(C)=O)c3C21OC(C)=O` (stereo not given), the TGI with HOP-18 NSCLC, in the test with LXFL 529 NSCLC, with M19-MEL melanoma and with XF 498 CNS was above 100 µM in each case.

On to `O=C(Nc1cccc(O)c1)C(=O)C(C(=O)c1ccccc1F)C1OC(=O)c2ccccc21` (stereo not given), for which the TGI turned out to be 88.8 µM with LXFL 529 NSCLC, 54.4 µM in the test with M19-MEL melanoma and 93.5 µM with RXF-631 renal.

In the case of `O=C(O)C(CO)NC(=O)n1c2ccccc2c2ccccc21` (stereo not given), the TGI in the test with HOP-18 NSCLC, with LXFL 529 NSCLC, with M19-MEL melanoma and in the test on XF 498 CNS was above 100 µM throughout.

`O=C(O)C(CS)N=c1c2ccccc2n(O)c2ccccc12` (stereo not given): the TGI in the test on HOP-18 NSCLC, in the test with LXFL 529 NSCLC, in the test with M19-MEL melanoma and in the test with RXF-631 renal was above 100 µM throughout.

As for `O=C1NC2OC(CO)C(O)C(O1)C2O` (stereo not given), the TGI with HOP-18 NSCLC, in the test with LXFL 529 NSCLC, with M19-MEL melanoma and in the test on XF 498 CNS was above 100 µM each time.

Take `C=CCOCCCCC(C(C)=O)C(=O)OC` (stereo not given): the TGI with HOP-18 NSCLC, with LXFL 529 NSCLC, in the test with M19-MEL melanoma and with XF 498 CNS was above 100 µM throughout.

`CC(C)(C)C1CCC2(CC1)c1[nH]c3ccccc3c1C1(CCC(C(C)(C)C)CC1)c1[nH]c3ccccc3c12` (stereo not given): the TGI in the test on HOP-18 NSCLC, in the test on LXFL 529 NSCLC, in the test on M19-MEL melanoma and in the test with XF 498 CNS was above 100 µM each time.

As to `COC(=O)C1CC2(c3ccccc3)C(=O)c3ccccc3N2O1` (stereo not given), the TGI in the test with HOP-18 NSCLC, with LXFL 529 NSCLC and with M19-MEL melanoma was above 100 µM in each case.
